{"source": "patent US6159733A", "about": "“Method for photoinactivating malignant cells” (priority 1996, dated 2000)", "key": {"[1]": {"system": "pluripotent stem cells", "assay": "Photosensitivity of pluripotent stem cells, cobblestone area forming cell (CAFC) assay", "assay_type": "cell-based, murine", "excerpt": "(§1) Animals. C57B1/6 (Ly-5.2) and B6SJ-cd45 ^b pep 3^b /BOY J (Ly-5.1), were obtained from The Jackson Laboratories (Bar Harbor, Me.) and were maintained in the animal facility of the New York Blood Center. After gamma-irradiation, the animals were housed in microisolator cages and provided with autoclaved food and autoclaved acidified water (pH=3) ad libitum. Preparation of bone marrow cell suspensions--Ly-5.1 mice were used as the source of donor BM. Mice (8-10 weeks old) were killed and the BM was harvested by flushing the femoral shafts with Hank's balanced salt solution (HBSS), pH 7.4. The cell suspensions were centrifuged, washed once and the cells were finally resuspended in HBSS--10% vol/vol fetal bovine serum (FBS, Gemini Bioproducts Inc., Calabasas, Calif.).\n(§2) Photosensitization. Aliquots of a 1.87 mM Pc 4 (kindly provided by Dr. M. E. Kenney) stock solution in dimethyl sulfoxide were kept at -80° C. in autoclaved brown glass vials. Immediately prior to the photosensitization, Pc4 was thawed and diluted in dimethyl formamide to yield a 10 μM working solution. […] Pc 4 was used at 15 nM throughout the experiments.\n(§3) BM and cell line samples, were incubated with 15 nM Pc 4 for two hours at 37° C. at cell concentrations of 1.5×10^7 cells/mL. Aliquots of 1.5 mL were transferred to 24-well plates; separate plates were used for each sample.\n(§4) In a second set of experiments, the cells were incubated with 15 nM Pc 4 at cell concentrations of 1.5×10^6 cells/mL. Prior to photoirradiation, the samples were centrifuged and the supernatants were aspirated and set aside. The cell concentrations were adjusted to 1.5×10^7 cells/mL by adding back an appropriate volume of the Pc 4 containing aspirates.\n(§5) Photoinactivation. The light source used was a filtered xenon short arc lamp (Versa-Light, Model UV-R6G, Medic Lightech, Ltd., Haifa, Israel). It was used to deliver red light (λ 600-700 nm) to the sensitized cells. After a 20 minute warm up period of the instrument, the distance from the light source to the bottom of the 24-well plate was adjusted to obtain a fluence rate of 26.6 mW/cm^2, as measured with a radiometer (Model IL 1350, International Light, Newburyport, Mass.). Samples were placed under the light source and were stirred during the irradiations. Before and after the irradiations, samples were kept in the dark.\n(§6) Cobblestone area forming cell assay. FBMD-1 stromal cells (gift from Dr. Ploemacher) were cultured at 33° C. in a humidified 5% CO2 -incubator in DMEM supplemented with 3.5 mM HEPES, 2 mM glutaMax (GibcoBRL), 10^-7 M sodium selenite, 10^-4 M β-mercaptoethanol, 10% vol/vol fetal calf serum (Gemini Bioproducts, Inc.), 5% vol/vol horse serum and 10^-5 M hydrocortisone 21-hemisuccinate (Breems, D. A., et al. Leukemia 8:1095 (1994); Van der Loo, J. C. M., et al. Blood 85:2598 (1995)). Prior to each experiment, FBMD-1 cells were harvested from log-phase cultures and fresh layers were prepared by seeding 1,000 cells into individual wells of 96-well flat bottom plates. These plates had been incubated overnight with 0.2% (wt/vol) gelatin to improve adherence of the stromal layer. The outer wells of the plates were filled with 100 μL 0.1 N NaOH to reduce infection.\n(§7) The FBDM-1 layers were overlaid with the bone marrow samples in a limiting dilution setup; the first wells receiving 180,000-300,000 cells (Breems, D. A., et al., supra). Ten dilutions 2-fold apart were used for each sample with 18 replicate wells per dilution. The cells were cultured at 33° C. in a humidified 5% CO2 -incubator. For each sample, the fraction of wells with at least one phase-dark hematopoietic clone of at least five cells (cobblestone area) was determined weekly and cobblestone area forming cell frequencies (CAFC) were calculated using the dedicated Poison statistics program LimDil (kindly provided by Dr. Jan Hendrikx). After counting, 100 μL medium was removed from the wells and replaced with 100 μL fresh medium.\n(§8) Statistics. […]"}, "[2]": {"assay": "Photosensitivity of pluripotent stem cells, cobblestone area forming cell (CAFC) assay", "assay_type": "cell-based, murine", "conditions": "mouse, bone marrow stem cells, 15 nM", "excerpt": "as §1, §2, §3, §4, §5, §6, §7, §8"}, "[3]": {"system": "BFU-E", "conditions": "15 nM Pc 4, 5×10^6 cells/mL, 8 J/cm^2; cited from earlier work"}}, "note": "“Also recorded” adds a separate entry of the source. Where two headings read alike, the source gives them in different places.", "data": [{"smiles": "CN(C)CCC[Si](C)(C)O[Si]1(O)n2c3c4ccccc4c2N=C2N=C(N=c4c5ccccc5c(n41)=NC1=NC(=N3)c3ccccc31)c1ccccc12", "note": "(stereo not drawn) [Pc 4, hydroxysiloxy-dimethylpropyl-N-dimethyl silicon phthalocyanine]", "values": [{"measurement": "relative CAFC day 28 frequency", "setting": "[1]; 15 nM, 1.5×10^6 cells/mL, 3 J/cm^2, two values, 40320 min, 0.015 µM", "value": "< 0.014"}, {"measurement": "CAFC frequency compared with untreated samples", "setting": "[1]; 15 nM, 1.5×10^7 cells/mL, 6 J/cm^2 (p=0.58)", "value": "not significantly lower"}, {"measurement": "CAFC frequency compared with untreated samples", "setting": "[1]; 15 nM, 1.5×10^7 cells/mL, 12 J/cm^2 (p=0.40)", "value": "not significantly lower"}, {"measurement": "CAFC frequency compared with untreated samples", "setting": "[1]; 15 nM, 1.5×10^7 cells/mL, 18 J/cm^2 (p=0.26)", "value": "not significantly lower"}, {"measurement": "relative CAFC frequency on day 28", "setting": "[1]; 15 nM, 1.5×10^7 cells/mL, 18 J/cm^2, two assays (p=0.69, p=0.78), 40320 min, 0.015 µM", "value": 0.92}, {"measurement": "effect on CAFC frequencies / pluripotent stem cells", "setting": "[1]; 15 nM, 1.5×10^7 cells/mL, after irradiation", "value": "not affected after irradiation; also recorded: not damaged"}, {"measurement": "photoinactivation of the stem cells (CAFC)", "setting": "[1]; 1.5×10^6 cells/mL", "value": "approximately 2 log10"}, {"measurement": "comparison with MC 540", "setting": "[1]; 1.5×10^7 cells/mL, vs Sieber (1987)", "value": "compared favorable to MC 540"}, {"measurement": "sensitivity of c-kit^+,Sca-1^+ BM fraction to photoinactivation", "setting": "[1]; relative to other cell types", "value": "least sensitive"}, {"measurement": "viability at 672 h, 0.015 µM", "setting": "[2]; 1.5×10^6 cells/mL, 3 J/cm^2, two values, read-out: relative CAFC day 28 frequency", "value": 1.8, "unit": "%"}, {"measurement": "viability at 672 h, 0.015 µM", "setting": "[2]; 1.5×10^7 cells/mL, 18 J/cm^2, two assays (p=0.69, p=0.78), read-out: relative CAFC frequency on day 28", "value": 91, "unit": "%"}, {"measurement": "surviving fraction of human cells", "setting": "[3]", "value": 0.9}]}]}
